How the values were obtained:
[1] = system: lactate metabolism during meningeal inflammation; experiment: Rabbit model for meningitis: lactate in CSF; format: in vivo, New Zealand white rabbits; conditions: 6 hours after challenge
Procedure: The rabbit model was performed according to an established protocol. Specific pathogen free, New Zealand white rabbits (2 kg; Hare Marland, Nutley, N.J.) were anesthetized with valium (2.5 mg/kg, subcutaneously, Hoffman-LaRoche, Nutley, N.J.), ketamine (35 mg/kg, intra-muscularly, Aveco, Fort Dodge, Iowa) and xylazine (5 mg/kg, intramuscularly, Miles Laboratories, Shawnee, Kans.) and a helmet of dental acrylic was affixed to the calvarium. Twenty four hours later, the rabbits were anesthetized with ethyl carbamate (1.75 g/kg; Aldrich Chemical Co., Milwaukee, Wis.) and pentobarbital (15 mg/kg; Abbott Laboratories, Abbott Park, Ill.) and placed in a stereotaxic frame. A spinal needle was introduced into the cisterna magna and 300 μl of CSF was withdrawn. The animals were challenged intracisternally with 10^8 heat killed, unencapsulated pneumococcus strain R6 introduced in 200 μl of saline (time 0). One hour later, animals were treated with peptides dissolved in 1 ml of saline by intravenous injection into the right marginal ear vein. The concentration of FHA was 0.1 μM and that of the FHA Ia, Factor X II, and scrambled FHA II peptides was 10 μM. For the acetyl-FHA II, acetyl/amide-FHA II, dimer of FHA II and trimer of FHA II peptides, the concentration was 10^-3 μM. The concentration of FHA II is given in the results section. Samples of CSF were withdrawn at hourly intervals after pneumococcal inoculation and leukocyte density was measured using a cell counter (Coulter Electronics Inc., Hialeah, Fla.). CSF samples were centrifuged at 10,000×g for 5 minutes and the supernatant was stored at -70° C. until assayed for protein concentration using the bicinchoninic acid method (ECA Kit, Pierce Chemical Co., Rockford, Ill.) and for lactate concentration (Lactate Detection Kit, Sigma, St. Louis, Mo.). Statistically significant differences between treatments were determined by a one way analysis of variance test.
Loss of barrier function of the cerebral capillary endothelium during inflammation is reflected by an influx of serum proteins into the CSF. […] To examine if the peptides were able to ameliorate these measures of cerebral injury, CSF protein and lactate concentrations were measured hourly in peptide-treated and control animals (Table 10).
Mean values for CSF lactate and protein at time 0 were 18.6±5.8 and 0.8±0.2 respectively. Ten control animals received phosphate-buffered saline. The concentration of FHA II intravenously injected one hour after challenge with pneumococci was 10 μM. Values represent mean±standarddeviation of concentrations in CSF at 6 hours after pneumococcal challenge (n≥4 for peptide treated animals; n=4 for FHA). *Statistically significant difference as compared to control at p<0.02 (Mann-Whitney test).
Again, mean values for CSF lactate and protein at time 0 were 18.6±5.8 and 0.8±0.2, respectively. Ten control animals received phosphate-buffered saline. The concentrations of FHA II intravenously injected was 10^-3 μM. Values represent mean±standard deviation of concentrations in CSF at 6 hours after pneumococcal administration (n≥4 per group).

CD11b/CD18 = biological target: T1, CD11b/CD18 (Homo sapiens, UniProt P05107+P11215); experiment: Downmodulation of CD11b/CD18 on macrophages (binding of C3bi-coated erythrocytes); format: cell-based; conditions: peptides 0.5 mM
T1 construct: peptide-coated wells, C3bi-erythrocyte rosetting
Procedure: FIG. 27 is a bar graph representation of the downmodμlation of CD11b/CD18 by FHA-peptides. mAb IB4 (50 μg/ml) served as a positive control. Data represent means±standard deviations of triplicate experiments with 6 wells/peptide.
Human monocytes were purified from buffy coats on Percoll gradients and cultured in 12.5% human serum in Teflon beakers. Macrophages were harvested from Teflon beakers after 6-8 days and suspended in HAP buffer. Terasaki wells were coated with 5 μl of peptides (0.5 mM) or anti-CD18 mAb IB4 (50 μg/ml). Control wells were coated with HAP. After 2 hours of incubation at RT, 5 μl of macrophages (5×10^5 /ml HAP) were added and allowed to spread for 45 mins. at 37° C. […] IgM-coated erythrocytes in buffer served as negative control. After washing, the number of erythrocytes bound per 100 leukocytes (adherence index) was quantitated visually under an inverted microscope.

[2] = system: 125I-Factor X binding to human neutrophils (CD11b/CD18); experiment: Inhibition of 125I-Factor X binding to neutrophils; format: cell-based; conditions: for inhibition of 125I-Factor X binding to neutrophils: peptides 0.5 mM, native FHA 0.3 μM
Procedure: FIG. 15 is a bar graph representation of the inhibition of ^125 I-Factor X binding to neutrophils by FHA, FHA- or Factor X-peptides as identified in Table 6. The concentration of inhibiting substances was: peptides 0.5 mM, native FHA 0.3 μM. Values represent the mean±standard deviation of triplicate experiments.
FIG. 16 is a graphical representation of the FHA, FHA- or Factor X-peptide concentration effect on the inhibition of ^125 I-Factor X binding to neutrophils. FHA peptide II (Square) and Factor X peptide II (Circle) at 10^-2 to 5×10^2 μM; FHA at 10^-6 to […] (triangle). Values are representative of triplicate experiments (standard deviations <15%).
Human Factor X (Sigma or Hematologic Technologies Inc.) was labeled with ^125 I using Iodogen (Pierce Chemical Co.) Human neutrophils were isolated from heparinized blood according to the manufacturer's specification using Neutrophil Isolation Medium (Cardinal Associates, Santa Fe, N. Mex.) and washed three times with 5 mM EDTA-phosphate-buffered saline (PBS), pH 7.2, at 4° C. To eliminate platelet contamination, neutrophils were incubated with autologous serum containing 5 mM EDTA for 30 mins. at 37° C., washed three times with ice-cold PBS, pH 7.2, and resuspended in RPMI 1640 tissue culture medium (Whittaker M.A. Bioproducts, Walkersville, Md.) at 4° C. Binding of ^125 I-Factor X to neutrophils was measured based on a method described by Altieri et al. (1991) Science 254: 1200-1202. Briefly, 200 μl of neutrophils (1.5×10^7 /ml) were supplemented with 17.5 μl of 50 mM CaCl2, stimulated with 3.5 μl of 100 μM NH2 -formyl-Met-Leu-Phe (Sigma), and mixed with 30 μl of 10.3 μg/ml ^125 I-Factor X and 100 μl of 1.75 mM of peptide. Buffer alone and a peptide of scrambled sequence served as controls in each of the 3 experiments. After incubation for 20 mins. at room temperature, neutrophil-bound ^125 I-Factor X was separated from unbound ^125 I-Factor X by centrifugation of 300 μl aliquots through 50 μl of a mixture of Hi phenyl silicone oil DC 550 and methyl silicone oil DC 200 5:1 (Nye Inc. Specialty Lubricants, New Bedford, Mass.) at 12,000×g for 2 mins. Aliquots of the supernatant (cell free ^125 I-Factor X) and the cell pellet (cell bound ^125 I-Factor X) were counted in a gamma-counter. Nonspecific binding (~50,000 cpm) was determined by adding a 100 fold excess of unlabeled Factor X, and subtracted from total radioactivity (~500,000 cpm for controls).

T1 sequence (P05107 23-769, other chains not shown): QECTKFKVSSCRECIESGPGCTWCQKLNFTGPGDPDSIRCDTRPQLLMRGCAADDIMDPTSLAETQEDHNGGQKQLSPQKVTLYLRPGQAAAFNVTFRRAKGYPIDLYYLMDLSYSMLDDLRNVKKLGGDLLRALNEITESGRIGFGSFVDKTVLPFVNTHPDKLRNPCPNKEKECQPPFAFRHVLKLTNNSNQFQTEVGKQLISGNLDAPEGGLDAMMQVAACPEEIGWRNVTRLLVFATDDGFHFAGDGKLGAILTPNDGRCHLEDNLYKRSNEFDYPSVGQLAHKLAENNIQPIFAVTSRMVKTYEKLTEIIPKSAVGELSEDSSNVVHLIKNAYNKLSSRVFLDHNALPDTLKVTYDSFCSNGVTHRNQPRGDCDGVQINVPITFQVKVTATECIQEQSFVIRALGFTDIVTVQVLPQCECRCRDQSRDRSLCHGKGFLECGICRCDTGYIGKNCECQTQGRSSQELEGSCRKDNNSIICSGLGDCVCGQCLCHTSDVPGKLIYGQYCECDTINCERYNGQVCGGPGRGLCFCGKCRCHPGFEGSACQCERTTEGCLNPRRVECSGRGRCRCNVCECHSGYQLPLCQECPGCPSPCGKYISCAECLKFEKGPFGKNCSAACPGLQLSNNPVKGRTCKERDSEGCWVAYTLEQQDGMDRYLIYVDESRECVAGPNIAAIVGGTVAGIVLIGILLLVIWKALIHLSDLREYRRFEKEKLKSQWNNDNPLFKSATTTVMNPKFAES

Substance | Lactate in CSF ([1]; peptides 10 μM, FHA 0.1 μM) [mg/100 ml] | IC50 [2] [µM] | downmodulation of CD11b/CD18 (in words) (CD11b/CD18) | other results
Ac-ETKEVDG-NH2 [Acetyl/Amide-FHA II] | 24.3 ± 3.2 |  |  | 
RGDPHQGVLAQGDIIMDAKG [FHA Ca] |  |  |  | reduction of binding of C3bi-coated erythrocytes to macrophages (CD11b/CD18; IB4 50 μg/ml): 61±7%
ETKEVDG [FHA II] | 25.5 ± 4.1 | 10 |  | inhibition of 125I-Factor X binding to neutrophils [2]: 87±8%; Lactate in CSF ([1]; 10^-3 μM): 35.3 ± 6.7 mg/100 ml
native FHA: Filamentous hemagglutinin, 220kD surface associated protein of Bordetella pertussis (List Biologicals) | 25.0 ± 5.3 | 0.1 |  | inhibition of 125I-Factor X binding to neutrophils [2]: 70±4%
RADPHQGVLAQGDIIMDAKG [FHA Cb] |  |  | no significant effect | 
LGYQAK (UniProt P12255 1979-1984, looked up, fragment) [FHA Ia] | 36.0 ± 6.7 |  |  | 
GTLLLRNDALTENGTVTISA [FHA Cd] |  |  | no significant effect | 
GYDTKQEDG [Factor X II] | 37.6 ± 6.9 | 500 |  | 
DEETVK [scrambled FHA II, reference compound] | 40.7 ± 5.8 |  |  | 
AADPHQGVLAQGDIIMDAKG [FHA Cc] |  |  | no significant effect | 
